Assay results: patent US7786287B2, “Hepatitis C virus assay systems” (priority 2002, dated 2010)

Target: T1, beta-lactamase (Escherichia coli, UniProt P62593, A182V/V82I)
T1 construct: HCV core N-terminal partial region (first 12 codons, about 36 nucleotides of core), then a 3-residue linker (Gly-Arg-Ala) and an added Met before His24 of the enzyme; expressed in transfected cells; host or cells: replicon-enhanced Huh-7 cells transfected with HCV replicon RNA encoding beta-lactamase
Assay: HCV replicon beta-lactamase assay: signal-to-background with clavulanic acid
Format: cell-based
Conditions: for Δ: 1.23 at 0.00 μM, Δ not defined; for S/B: 3.5 at 0.00 μM
Experimental: Clavulanic acid can be used to enhance the signal-to-background ratio from the beta-lactamase reporter system wherein, a larger signal to noise ratio facilitates detection of HCV replication inhibitors by better reflecting changes in the intracellular concentration of beta-lactamase.
Prior to use, frozen cells are thawed fresh in the morning of the assay or the day before and diluted in pre-warmed media to 40,000 cells/ml. Cell suspension (50 μl) is plated into 384-well micro-titer plates. The cells are allowed to recover for at least 6 hours at 37° C. in the plates before beginning an assay. 1 μl of 25 μM clavulanic acid in PBS and 0.25 μl of 500 μM test compounds in DMSO are added to the cells. The assay cell plates are then incubated for 24 hours at 37° C. To the assay plate, 10 μl of 6×CCF4/AM substrate in loading buffer is added with a Multidrop (Labsystems), and the plate incubated for 90 minutes at ambient temperature. The plate is then read from the bottom on a Teacn Spectrafluor Plus (340 nm excitation, 460 nm and 530 nm emissions).
In the example described below, clavulanic acid is present throughout the assay at a concentration that slightly reduces beta-lactamase activity instead of using it at high concentration that would complete inhibit beta-lactamase activity.
Table 2 provides results obtained using different concentrations of clavulanic acid and an HCV NS5B inhibitor.

Q: How did the Δ ([CA] 0.13 μM) turn out when O=C(O)[C@H]1/C(=C/CO)O[C@@H]2CC(=O)N21 [clavulanic acid] was run?
A: 1.22

Q: What about the S/B ([CA] 0.13 μM) of the same compound?
A: 5.7

Q: And the Δ ([CA] 0.25 μM)?
A: 1.17

Q: And the S/B ([CA] 0.25 μM)?
A: 6.0

Q: What about the Δ ([CA] 0.50 μM) of the same compound?
A: 0.97

Q: What about the S/B ([CA] 0.50 μM) of the same compound?
A: 6.3

Q: What about the Δ ([CA] 1.00 μM) of the same compound?
A: 0.81

Q: What about the S/B ([CA] 1.00 μM) of the same compound?
A: 5.4
